Experimental data: patent US9688651B2, “Geranyl geranyl acetone analogs and uses thereof” (NYKEN Holding B.V., priority 2012, dated 2017)

Legend:
HSP90 = HSP90 mRNA (qPCR) in HL-1 cardiomyocytes after mild heat shock; type: cell-based, mouse; details: then compound 10 μM for 6 hours
Procedure: (§1) HL-1 cardiomyocytes were subjected to a mild heat shock of 44° C. for 10 minutes. After a recovery of 10 minutes (37 degrees 5% CO2), compounds were added in a final concentration of 10 μM (dissolved in DMSO, final concentration 0.1%). To control myocytes, 0.1% DMSO was added. After six hours the cells were lysed in RIPA buffer and used for Western blotting as described previously.^3, 10 Compounds were also screened for their ability to upregulate HSP gene expression. Hereto, HL-1 cardiomyocytes were first subjected to a mild heat shock which activates the Heat Shock Factor. After the mild heat shock, compound (10 μM) was added to the medium of HL-1 cardiomyocytes for 6 hours, followed by determination of HSP70, HSP25, HSP90 and HSP40 which are targets of the heat shock factor 1 (HSF1) transcription factor. In addition, we determined mRNA levels of the gene encoding the glucose-responsive protein 78 (Grp78) which is HSF1-independent.

HSP40 = HSP40 mRNA (qPCR) in HL-1 cardiomyocytes after mild heat shock; type: cell-based, mouse; details: then compound 10 μM for 6 hours
Procedure: as §1

HSP70 [1] = assay: HSP70 protein boosting in HL-1 cardiomyocytes after mild heat shock (Western blot); type: cell-based, mouse; details: for induction of mammalian HSP70 protein expression: HL-1, mild heat shock, 10 μM, 6 hours; for HSP boosting HL-1 cardiomyocytes Protein HSP70: mild heat shock 44°C 10 min, then compound 10 μM for 6 hours, Western blot
Outline: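 Mouse atrial HL-1 myocytes given mild heat shock (44° C., 10 min), recovered 10 min at 37° C., then exposed to compound at 10 μM final (0.1% DMSO) for 6 h. HSP70 in RIPA lysates measured by Western blot, ECL detection and densitometry.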

[2] = system: glucose-responsive protein 78 (Grp78); assay: Grp78 mRNA (qPCR, HSF1-independent) in HL-1 cardiomyocytes; type: cell-based, mouse; design: key to HSP boosting HL-1 cardiomyocytes mRNA (qPCR) Grp78 Not HSF1: 0 = no induction HSP levels; + = 2-10-fold induction; ++ = 10-30-fold induction; +++ = > 30-fold induction; details: for upregulation of Grp78 mRNA: HL-1, mild heat shock, 10 μM, 6 hours; for HSP boosting HL-1 cardiomyocytes mRNA (qPCR) Grp78 Not HSF1: mild heat shock, then compound 10 μM for 6 hours
Procedure: as §1

[3] = system: HSP70, HSP25, HSP90 and HSP40; assay: Upregulation of HSP gene expression (HSF1 targets) in HL-1 cardiomyocytes; type: cell-based, mouse; details: HL-1, mild heat shock, 10 μM, 6 hours
Procedure: as §1

HSP70 [4] = assay: Hsp70 induction in murine proximal tubule (MPT) cells (Western blot); type: cell-based; details: 40 μM, 5 hours, outperformed positive control GGA
Procedure: Murine proximal tubule (MPT) cells were isolated and cultured as described previously (Borkan et al. Heat stress ameliorates ATP depletion-induced sublethal injury in mouse proximal tubule cells. Am. J. Physiol. 1997; F347-55).
The MPT cells were exposed to 40 μM of compound for 5 hours, after which the cells were harvested in RIPA buffer followed by Western blotting.
For Western-blot analysis, equal amount of protein in SDS-PAGE sample buffer was separated on 10% PAA-SDS gels. After transfer to nitrocellulose membranes (Stratagene, USA), membranes were incubated with primary antibodies against HSP70 (Enzo C92F3A/StressGen SP810) or beta-actin (Sigma A541). Horseradish peroxidase-conjugated anti-mouse or anti-sheep (Jackson ImmunoRes) was used as secondary antibody. Signals were detected by the ECL-detection method (Amersham).

HSP25 = HSP25 mRNA (qPCR) in HL-1 cardiomyocytes after mild heat shock; type: cell-based, mouse; details: then compound 10 μM for 6 hours
Procedure: as §1

HSP70 [5] = assay: HSP70 mRNA (qPCR) in HL-1 cardiomyocytes after mild heat shock; type: cell-based, mouse; details: then compound 10 μM for 6 hours
Procedure: as §1

[6] = system: MCF-7 breast cancer cells; assay: MCF-7 cell death, ratio death/living cells (trypan blue); type: cell-based, human; design: key to Cell Death MCF-7 cancer cells Death/living 100 μM: 0 = no dead cells; + = P < 0.05; ++ = P < 0.01; +++ = P < 0.001; details: 100 μM; 16-20 hours; trypan blue
HSP27 = HSP27 Western blot in MCF-7 cells; type: cell-based, human; design: key: + = P < 0.05; ++ = P < 0.01; +++ = P < 0.001; details: MCF-7 lysate, 16-20 hours
Outline: (§2)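 MCF-7 cells in DMEM/10% FCS exposed to test compounds at final concentration 10 for 16-20 h; dead/living ratio by trypan blue. RIPA lysates, equal protein, run on 10% SDS gels and immunoblotted; ECL detection with densitometric quantification, GAPDH also probed.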

PARP = PARP cleavage in MCF-7 cells (Western blot); type: cell-based, human; design: key to Cell Death MCF-7 cancer cells PARP: 0 = no dead cells; + = P < 0.05; ++ = P < 0.01; +++ = P < 0.001; details: MCF-7 lysate, Western blot, 16-20 hours
Outline: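 MCF-7 cells in DMEM/10% FCS exposed to 10 μM compound for 16-20 h; dead versus living cells counted by trypan blue. Lysates in RIPA analysed by Western blot for PARP (plus HSPs, GAPDH), ECL detection with densitometric quantification.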

HSP70 [7] = assay: HSP70 Western blot in MCF-7 cells; type: cell-based, human; design: key: + = P < 0.05; ++ = P < 0.01; +++ = P < 0.001; details: MCF-7 lysate, 16-20 hours
Outline: as §2

SMILES | HSP boosting HL-1 cardiomyocytes mRNA (qPCR) HSP 90 (HSP90) | HSP boosting HL-1 cardiomyocytes mRNA (qPCR) HSP 40 (HSP40) | induction of mammalian HSP70 protein expression (HSP70 [1]) | HSP boosting HL-1 cardiomyocytes Protein HSP70 (HSP70 [1]) | upregulation of Grp78 mRNA [2] | HSP boosting HL-1 cardiomyocytes mRNA (qPCR) Grp78 Not HSF1 [2] | induction of HSP gene expression [3] | induction of HSP70 expression in renal (MPT) cells (HSP70 [4]) | HSP boosting HL-1 cardiomyocytes mRNA (qPCR) HSP 25 (HSP25) | HSP boosting HL-1 cardiomyocytes mRNA (qPCR) HSP 70 (HSP70 [5]) | Cell Death MCF-7 cancer cells Death/living 100 μM [6] | Cell Death MCF-7 cancer cells HSP 27 (HSP27) | Cell Death MCF-7 cancer cells PARP (PARP) | Cell Death MCF-7 cancer cells HSP 70 (HSP70 [7])
CC(C)=CCC/C(C)=C/CNC(=O)CCC(=O)O [Compound 46] | ++ (++ = 10-30-fold induction) | + (+ = 2-10-fold induction) | potent inducers | ++ (++ = 10-30-fold induction) | no upregulation | 0 | strong inducers | strong inducers | ++ (++ = 10-30-fold induction) | + (+ = 2-10-fold induction) |  |  |  | 
CC(C)=CCC/C(C)=C/CNS(C)(=O)=O [Compound 51, (E)-N-(3,7-Dimethylocta-2,6-dien-1-yl)methanesulfonamide] | + (+ = 2-10-fold induction) | + (+ = 2-10-fold induction) | potent inducers |  | no upregulation | 0 | strong inducers | strong inducers | + (+ = 2-10-fold induction) | + (+ = 2-10-fold induction) | 0 | ++ (++ = P < 0.01) | 0 | + (+ = P < 0.05)
CC(C)=CCC/C(C)=C/CNS(=O)(=O)C(F)(F)F [Compound 52] | + (+ = 2-10-fold induction) | + (+ = 2-10-fold induction) | potent inducers |  | no upregulation | 0 | strong inducers | strong inducers | + (+ = 2-10-fold induction) | + (+ = 2-10-fold induction) |  |  |  | 
CCOC(=O)C(C/C=C(\C)CCC=C(C)C)C(=O)c1ccccc1O (stereo not shown) [Compound 61, (E)-Ethyl 2-(2-hydroxybenzoyl)-5,9-dimethyldeca-4,8-dienoate] | + (+ = 2-10-fold induction) | + (+ = 2-10-fold induction) | potent inducers | ++ (++ = 10-30-fold induction) | no upregulation | 0 | strong inducers | strong inducers | + (+ = 2-10-fold induction) | + (+ = 2-10-fold induction) | 0 | 0 | 0 | 0
